The test system of this test is KB cells. The experiment in a line: Cell migration wound healing assay. Format: cell-based, Human. The note with it: 10 μM, 9 hours.

Where a name gives a salt, the structure may show the parent alone.

As to `CNC(=O)c1cc(Oc2ccc(NC(=O)Nc3ccc(Cl)c(C(F)(F)F)c3)cc2)ccn1` [Sraf, Sorafenib tosylate], the “retardation of migration of KB cells” value was found to be 30±9%. For the same compound, the “width of the wound” value (control 525±23 μm at 0 h) is 303±27 μm.
